Measurements taken from PubChem BioAssay AID248 (DTP/NCI, 2004).
Inconclusive results and toxic doses are left out. Rule as the data show it: active = T/C of 150% or more; inactive = T/C below 125%.

Test system: L1210 leukemia ip in BDF1 mice, survival T/C
Assay: NCI In Vivo Anticancer Drug Screen. Data for tumor model L1210 Leukemia (intraperitoneal) in B6D2F1 (BDF1) mice
Conditions: endpoint: mean survival time, higher = longer survival
Outline: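 Antitumor effect is assessed in tumor-bearing animals. Survival in the compound arm is compared with a vehicle-dosed control arm and expressed as their quotient.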

Measured: T/C

CNC(=Nc1ccc(NC(=O)NC(=O)c2ccc(C(=O)NC(=O)Nc3ccc(N=C(NC)c4ccccc4)cc3)cc2)cc1)c1ccccc1
inactive: dose: 62.0 mg/kg/injection, schedule: Q01DX Z (ip), vehicle: carboxymethylcellulose (CMC) 88 % of control | dose: 125.0 mg/kg/injection, schedule: Q01DX Z (ip), vehicle: carboxymethylcellulose (CMC) 104 % of control | dose: 250.0 mg/kg/injection, schedule: Q01DX Z (ip), vehicle: carboxymethylcellulose (CMC) 92 % of control | dose: 500.0 mg/kg/injection, schedule: Q01DX Z (ip), vehicle: carboxymethylcellulose (CMC) 95 % of control

CNC(=O)c1c2c(nc3ccccc13)CCCC2
inactive: dose: 100.0 mg/kg/injection, schedule: Q01DX001 (ip), vehicle: saline 102 % of control | dose: 200.0 mg/kg/injection, schedule: Q01DX001 (ip), vehicle: saline 102 % of control | dose: 400.0 mg/kg/injection, schedule: Q01DX001 (ip), vehicle: saline 111 % of control
